# In patent US20230234936A1, “COMPOUND FOR TARGETING AND DEGRADING PROTEIN, AND PREPARATION METHOD THEREFOR AND USE THEREOF” (SHANGHAI LEADINGTAC PHARMACEUTICAL CO., LTD., priority 2020, published 2023):
# Columns and labels:
# IRAK4 kinase = target: T1, IRAK4 kinase (Homo sapiens, UniProt Q9NWZ3); assay: IRAK4 kinase activity test (KinEASE-STK S1 HTRF kit); format: biochemical; details: 2.5 nM kinase, 1 μM biotinylated polypeptide substrate, 7 μM ATP, 37° C. 120 min
# T1 sequence (Q9NWZ3 1-460): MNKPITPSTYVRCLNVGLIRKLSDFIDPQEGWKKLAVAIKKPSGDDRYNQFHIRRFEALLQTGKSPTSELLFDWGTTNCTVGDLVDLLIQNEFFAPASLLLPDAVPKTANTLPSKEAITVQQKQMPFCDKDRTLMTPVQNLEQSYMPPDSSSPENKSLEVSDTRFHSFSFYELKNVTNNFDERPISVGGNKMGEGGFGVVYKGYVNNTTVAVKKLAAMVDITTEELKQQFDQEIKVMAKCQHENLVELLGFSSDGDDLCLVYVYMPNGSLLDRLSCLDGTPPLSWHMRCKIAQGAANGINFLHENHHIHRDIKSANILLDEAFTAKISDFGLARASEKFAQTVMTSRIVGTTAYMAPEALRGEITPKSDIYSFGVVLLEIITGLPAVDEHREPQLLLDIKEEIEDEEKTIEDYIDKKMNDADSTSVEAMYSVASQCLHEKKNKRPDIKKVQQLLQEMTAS
# Procedure: KinEASE-STK S1 serine/threonine kinase kit (Cisbio) was used to detect the inhibitory effect of the compound on IRAK4 kinase activity. The specific method was: the compound was dissolved in dimethyl sulfoxide, and then it was diluted with the buffer solution of the kit by equal gradient to make the final concentration range of the tested compound in the reaction system 10000 nM-0.038 nM, then 2.5 nM kinase, 1 μM biotinylated polypeptide substrate and 7 μM adenosine triphosphate (ATP) were added in sequence and incubated at 37° C. for 120 min. Subsequently, anti-phosphorylated serine/threonine antibody coupled with europium element compound and modified XL665 streptavidin were added to the reaction system to terminate the reaction. After incubating at room temperature for 1 h, the fluorescence intensity of each well at the emission wavelength of 620 nm and 665 nm and the excitation wavelength of 337 nm was determined in HTRF mode on the microplate reader EnVision(PerkinElmer), the ratio value was calculated using the formula Ratio=(665 nm/620 nm)×10^4. By comparing with the fluorescence intensity ratio of the control group, the inhibition rate of the compound at each concentration was calculated, and then the IC50 value of the compound was obtained by fitting the nonlinear curve with the logarithmic concentration-inhibition rate by GraphPad Prism 7.
# [1] = target: T2, IRAK4 protein in THP-1 cells (Homo sapiens, UniProt Q9NWZ3); assay: Degradation of IRAK4 in THP-1 cells (Western blot); format: cell-based; details: 24 hours, compound 1-3000 nM
# T2 construct: endogenous in cells; host or cells: THP-1
# T2 sequence (Q9NWZ3 1-460): T1 sequence (Q9NWZ3 1-460)
# Procedure: Each well of the 24-well cell culture plate was inoculated with 0.95 mL THP-1 cells (stem cell bank of Chinese academy of sciences) with a cell density of 5×10^5 cells/well. The cell plate was placed in a 5% carbon dioxide incubator and cultured overnight at 37° C., then 50 μL compound in dimethyl sulfoxide was added. The final concentration of the compound was in the range of 1-3000 nM. After continuous cultivation for 24 hours, the cells were collected into a 1.5 mL centrifuge tube, centrifuged at 1000 rpm and 4° C. for 5 minutes. Cell precipitation was cleaned twice with 1-DPBS, resuspended cells were lysed with 200 μL lysate (cell lysate was Western and IP cell lysate (Beyotime), supplemented with 1 mM mixture of phenylmethylsulfonyl fluoride and protease inhibitor (Beyotime)), left on ice for 30 minutes, then centrifuged at 14000 g at 4° C. for 10 minutes, and the supernatant was taken to detect IRAK4 protein level by Western blot.
# Western blot method: The total protein concentration in the supernatant of cell lysis was determined by BCA protein quantitative kit (Tiangen). According to the concentration of total protein detected by BCA, the supernatant was adjusted to 0.2 μg/μL with PBS and 5× SDS-PAGE protein loading buffer (Beyotime), bathed in water at 100° C. for 10 minutes, then placed in ice bath for 5 minutes, centrifuged at 14000 g and 4° C. for 5 minutes, and then collected as WB loading sample. Prefabricated glue (KeyGEN) was used for protein electrophoresis with a loading amount of 10 μL (total protein 2 μg). After Tris-MOPS-SDS electrophoresis solution (Adamas), 120V constant pressure electrophoresis was performed. After electrophoresis, the protein on the adhesive strip was transferred to PVDF membrane with a constant current of […] for 50 minutes. After the membrane was transferred, the membrane was placed in 1×QuickBlock blocking buffer (Beyotime) and incubated for 30 minutes at room temperature. After blocking, PVDF membranes were incubated with IRAK4 primary antibody (Abcam) overnight at 4°, the membranes were washed with TBST buffer (2.4 g Tris, 8.8 g NaCl, 1.5 mL Tween 20, pH adjusted to 7.4, constant volume to 1 L) for 30 minutes, incubated with secondary antibody (Abcam) for 2 hours at room temperature, finally incubated with Clarity Western ECL Substrate(BIO-RAD) for 5 minutes for luminescence development, chemiluminescence imaging system (Clinx, chemiScope 6200 Touch) for development and protein mapping photography. The protein map was analyzed by Clinx chemiluminescence analysis software for grayscale values. Using the formula: grayscale correction value=(target protein grayscale value/corresponding internal reference grayscale value)×10^3, the grayscale correction value of each sample was calculated. The degradation rate was calculated by comparing with the grayscale correction value of the control group. Furthermore, DC50 and Dmax values of the compound were obtained by the nonlinear curve fitting with the logarithmic concentration-inhibition rate by GraphPad Prism 7.
Compound,IC50 (IRAK4 kinase),DC50 [1],Dmax [1]
"COc1ccc(C(=O)N2CCC3(CCC(CCN4CCC(n5cc6cc(NC(=O)c7cccc(C(F)(F)F)n7)c(C(C)(C)O)cc6n5)CC4)CC3)CC2)cc1N1CCC(=O)NC1=O [Example 21, N-(2-(1-(2-(3-(3-(2,4-dioxotetrahydro-pyrimidin-1 (2H)-yl)-4-me-thoxybenzoyl)-3-azaspiro [5.5]undec-9-yl)ethyl)piperidin-4-yl)-6-(2-hydroxyprop-2-yl)-2H-indazol-5-yl)-6-(trifluoro-methyl) pyridinecarbox-amide]",18 nM,4 nM,90.1%
"COc1ccc(C(=O)N2CCC(CCCN3CCC(n4cc5cc(NC(=O)c6cccc(C(F)(F)F)n6)c(C(C)(C)O)cc5n4)CC3)CC2)cc1N1CCC(=O)NC1=O [Example 22, N-(2-(1-(3-(1-(3-(2,4-dioxotetrahydro-pyrimidin-1 (2H)-yl)-4-me-thoxybenzoyl)piperidin-4-yl)propyl)piperidin-4-yl)-6-(2-hydroxyprop-2-yl)-2H-inda-zol-5-yl)-6-(trifluoromethyl) pyridinecarbox-amide]",11.7 nM,16.4 nM,94.3%
"COc1ccc(C(=O)N2CCC(OCCN3CCC(n4cc5cc(NC(=O)c6cccc(C(F)(F)F)n6)c(C(C)(C)O)cc5n4)CC3)CC2)cc1N1CCC(=O)NC1=O [Example 23, N-(2-(1-(2-((1-(3-(2,4-dioxotetrahydro-pyrimidin-1 (2H)-yl)-4-me-thoxybenzoyl)piperidin-4-yl)oxy)ethyl)piperdin-4-yl)-6-(2-hydroxyprop-2-yl)-2H-inda-zol-5-yl)-6-(triflu-oromethyl) pyridinecarbox-amide]",8.5 nM,32.4 nM,97.6%
CCOc1ccc(C(=O)N2CCC3(CC2)CC(CCN2CCC(n4cc5cc(NC(=O)c6cccc(C(F)(F)F)n6)c(C(C)(C)O)cc5n4)CC2)C3)cc1N1CCC(=O)NC1=O [Example 25],13.7 nM,0.82 nM,98%
COc1ccc(C(=O)N2CCC3(CC2)CC(CCN2CCC(n4cc5cc(NC(=O)c6cccc(C(F)(F)F)n6)c(C(C)(C)O)cc5n4)CC2)C3)cc1N1CCC(=O)NC1=O [Example 26],6.5 nM,1 nM,86.9%
CC(C)(O)c1cc2nn(C3CCN(CCC4CC5(CCN(C(=O)c6ccc(Cl)c(N7CCC(=O)NC7=O)c6)CC5)C4)CC3)cc2cc1NC(=O)c1cccc(C(F)(F)F)n1 [Example 27],13.8 nM,3.5 nM,96.3%
"COc1cc2nn(C3CCN(CC4CCC5(CC4)CCN(C(=O)c4ccc(OC)c(N6CCC(=O)NC6=O)c4)CC5)CC3)cc2cc1NC(=O)c1cccc(C(F)(F)F)n1 [Example 30, N-(2-(1-((3-(3-(2,4-dioxotetrahydro-pyrimidin-1 (2H)-yl)-4-me-thoxybenzoyl)-3-azaspiro[5.5]undec-9-yl)methyl)piperidin-4-yl)-6-methoxy-2H-indazol-5-yl)-6-(tri-fluoromethyl) pyridinecarbox-amide]",16 nM,2.3 nM,98.4%
"COc1ccc(C(=O)N2CCC3(CCC(CN4CCC(n5cc6cc(NC(=O)c7cccc(C(F)(F)F)n7)c(C(C)(C)O)cc6n5)CC4)CC3)CC2)cc1N1CCC(=O)NC1=O [Example 33, N-(2-(1-((3-(3-(2-4-dioxotetrahydro-pyrimidin-1 (2H)-yl)-4-me-thoxybenzoyl)-3-azaspiro [5.5]undec-9-yl)methyl)piperdin-4-yl)-6-(2-hydroxyprop-2-yl)-2H-indazol-5-yl)-6-(trifluoro-methyl) pyridinecarbox-amide]",17.2 nM,2.1 nM,96.6%
CC(C)(O)c1cc2nn(C3CCN(CCC4CCN(C(=O)c5ccc(Cl)c(N6CCC(=O)NC6=O)c5)CC4)CC3)cc2cc1NC(=O)c1cccc(C(F)(F)F)n1 [Example 35],10.3 nM,8.4 nM,95.2%
"CC(C)(O)c1cc2nn(C3CCN(CC4CC5(CCN(C(=O)c6ccc(Cl)c(N7CCC(=O)NC7=O)c6)CC5)C4)CC3)cc2cc1NC(=O)c1cccc(C(F)(F)F)n1 [Example 36, N-(2-(1-((7-(4-chloro-3-(2,4-dioxotetrahydro-pyrimidin-1 (2H)-yl)benzoyl)-7-azaspiro [3.5]non-2-yl)methyl)piperdin-4-yl)-6-(2-hydroxyprop-2-yl)-2H-indazol-5-yl)-6-(trifluoro-methyl) pyridinecarbox-amide]",11.8 nM,4 nM,92.5%
"COc1cc2nn(C3CCN(CC4CC5(CCN(C(=O)c6ccc(Cl)c(N7CCC(=O)NC7=O)c6)CC5)C4)CC3)cc2cc1NC(=O)c1cccc(C(F)(F)F)n1 [Example 39, N-(2-(1-((7-(4-chloro-3-(2,4-dioxotetrahydro-pyrimidin-1 (2H)-yl)benzoyl)-7-azospiro [3.5]non-2-yl)methyl)piperidin-4-yl)-6-methoxy-2H-indazol-5-yl)-6-(trifluoromethyl) pyridinecarbox-amide]",16.7 nM,10.5 nM,89.4%
"COc1cc2nn(C3CCN(CC4CCC5(CC4)CCN(C(=O)c4ccc(F)c(C6CCC(=O)NC6=O)c4)CC5)CC3)cc2cc1NC(=O)c1cccc(C(F)(F)F)n1 (stereo not drawn) [Example 42, N-(2-(1-((3-(3-(2,6-dioxopiperidin-3-yl)-4-fluoro-benzoyl)-3-azaspiro [5.5]undec-9-yl)methyl)piperidin-4-yl)-6-methoxy-2H-indazol-5-yl)-6-(trifluoromethyl) pyridinecarbox-amide]",39.2 nM,7.8 nM,100%
"COc1cc2nn(C3CCN(CCC4CC5(CCN(C(=O)c6ccc(Cl)c(N7CCC(=O)NC7=O)c6)CC5)C4)CC3)cc2cc1NC(=O)c1cccc(C(F)(F)F)n1 [Example 43, N-(2-(1-(2 (7-(4-chloro-3-(2,4-dioxotetrahydro-pyrimidin-1 (2H)-yl)benzoyl)-7-azospiro [3.5]non-2-yl)ethyl)piperidin-4-yl)-6-methoxy-2H-indazol-5-yl)-6-(trifluoromethyl) pyridinecarbox-amide]",24.2 nM,4.9 nM,98.7%
"COc1cc2nn(C3CCN(CC4CCC5(CC4)CCN(C(=O)c4ccc(F)c(N6CCC(=O)NC6=O)c4)CC5)CC3)cc2cc1NC(=O)c1cccc(C(F)(F)F)n1 [Example 44, N-(2-(1-((3-(3-(2,4-dioxotetrahydro-pyrimidin-1 (2H)-yl)-4-fluoro-benzoyl)-3-azaspiro[5.5]undec-9-yl)methyl)piperidin-4-yl)-6-methoxy-2H-indazol-5-yl)-6-(trifluoromethyl) pyridinecarbox-amide]",52.4 nM,2.3 nM,98.5%
